According to US4267185A, “Antidepressant pyrrolylpiperidines, their pharmaceutical compositions and method of use” (E. I. Du Pont de Nemours and Company, priority 1980, dated 1981):
Read-outs that look alike come from different tables or passages of the source.

Tested on: tetrabenazine-induced sedation and depression in mice
Experiment: Antagonism of tetrabenazine-induced depression in mice, orally, at 1 hour post-drug
Assay type: in vivo, female white mice (Carworth CF1 S)
Settings: Mus musculus
Method: This mouse test is predictive of human antidepressant response (Everett, "The Dopa Response Potentiation Test and Its Use in Screening for Antidepressant Drugs," pp. 164 in "Antidepressant Drugs" (Proceedings of the First International Symposium), S. Garattini and M. N. G. Dukes, eds., 1967).
Groups of 10 Carworth CF1 S female mice, 18-21 g each, were fasted 1.5 hours and were intubated with antagonist compounds at oral doses of 0, 0.33, 1, 3, 9, 27, and 81 mg/kg in 0.20 ml of 1% Methocel-1.25% Tween 80. The mice were challenged 30 minutes later with tetrabenazine (as the methanesulfonate), 32 mg/kg intraperitoneally (dissolved in 0.20 ml 0.05 M KCl at pH 2.0). One hour after antagonist (30 minutes after tetrabenazine), the mice were examined for signs of exploratory activity and ptosis (eyelid closure). Normal exploratory activity (relief from sedation) was recorded when a mouse lifted by the tail from a group of 10 in a testing box and placed on a stainless testing box lid (12.5"×8"with 0.33" mesh) either turned its head horizontally 30° in both directions or moved to the edge of the screen within 10 seconds after being placed on the screen. Relief from ptosis was recorded when exactly two seconds after placing the mouse facing the observer, lid closure was less than 50% in both eyes.

[1] = po, 1 h, read-out: ED50 for prevention of exploratory loss
[2] = po, 1 h, read-out: ED50 for prevention of ptosis

| SMILES | ED50 [1] | ED50 [2] | ED50 (oral, 1 hour post-drug (30 min after tetrabenazine 32 mg/kg i.p.), exploratory activity, read-out: ED50 for prevention of exploratory loss) | ED50 (oral, 1 hour post-drug (30 min after tetrabenazine 32 mg/kg i.p.), lid closure less than 50% in both eyes, read-out: ED50 for prevention of ptosis) |
| --- | --- | --- | --- | --- |
| CN1CC=C(c2cccn2C)CC1.Cl [Example 2, 1,2,3,6-Tetrahydro-1-methyl-4-(1-methylpyrrol-2-yl)pyridine, hydrochloride salt] | 1.4 mg/kg | 0.8 mg/kg | – | – |
| CN1CCC(O)(c2cccn2C)CC1 [Example 1, 1-Methyl-4-(1-methylpyrrol-2-yl)-4-piperidinol] | 1.8 mg/kg | 1.1 mg/kg | – | – |
| CN(C)CCC=C1c2ccccc2CCc2ccccc21 [Amitriptyline, reference compound] | – | – | 3.5 mg/kg | 1.4 mg/kg |
